In PMC7139479, “Insights into Interactions of Flavanones with Target Human Respiratory Syncytial Virus M2-1 Protein from STD-NMR, Fluorescence Spectroscopy, and Computational Simulations” (International Journal of Molecular Sciences, 2020):

How the values were obtained:
[1] = biological target: T1, hRSV M2-1 protein (Human respiratory syncytial virus A, UniProt P04545); assay: Fluorescence quenching of M2-1 by flavanones (double-log plot, thermodynamic analysis); format: binding, human Respiratory Syncytial Virus (hRSV A2 strain); details: for Enthalpy change ΔH: Van't Hoff equation from Kb at 288 and 298 K
T1 construct: allowing the expression of the full-length M2-1 with N-terminal fused to a His6-tag; made in house; host or cells: Escherichia coli BL21 RIL
Experimental: The fluorescence measurements were performed on a steady-state ISS-PC1 spectrofluorimeter with temperature control (thermal bath Neslab RTE-221) and equipped with quartz cuvette of 10 mm optical path length. The excitation and emission bandwidths were set at 4 and 8 nm, respectively. The excitation wavelength was of 290 nm and the emission spectra were reported between 295 and 500 nm with 10 accumulations for each collected point. The emission spectrum was corrected for the background fluorescence from the buffer solution and for inner filter effect promoted by the flavonoids. The protein-ligand interaction measures were performed by collecting the fluorescence spectra of the protein in the absence of ligand (2 mL at 6 μM) and checking for quenching of intensities after addition of increasing concentrations of flavonoids, at 288 and 298 K (15 and 25 °C). The flavonoids’ concentrations varied from 0 to 26 μM in the final solution, with the emission of the hRSV M2-1 protein analyzed at 320 nm.
For the data analysis, it was hypothesized that the binding sites of the flavonoids on the M2-1 protein are equal and independent. Thus, the binding constant (Kb) and the number of binding sites (n) can be calculated using the following equation [46]:(2) log(F0−F/F)=n·logKb+n·log1/([LT]−(F0−F/F0)[PT]) where F0 and F are the fluorescence intensity of the M2-1 protein in the absence and in the presence of the flavonoids, respectively. [PT] and [LT] is the total concentration of M2-1 protein and ligand (flavonoids), respectively. The values of Kb and n for the M2-1/flavonoids complex are obtained from the ordinate and slope of the linear fitting from the double-log plot log((F0 − F)/F) & log(1/([LT] − ((F0 − F)/F0)[PT])), respectively.
In order to investigate the driving forces responsible for the binding of the flavonoids hesperetin and hesperidin to the M2-1 protein, the enthalpy change (ΔH) of this interaction was calculated from the Van’t Hoff equation:(3) lnKb2/Kb1=−ΔH/R(1/T2−1/T1) where Kb1 and Kb2 are binding constants at the absolute temperatures T1 and T2, which were 288 and 298 K (15 and 25 °C), respectively. R corresponds to the universal gas constant ([…]). The Gibbs free energy (ΔG) and entropy changes (ΔS) for the M2-1/flavonoids complex were calculated from the following equations:(4) ΔG=−R·T·lnKb (5) ΔS=ΔH−ΔG/T

[2] = biological target: T1, hRSV M2-1 protein; assay: STD-NMR of M2-1/flavanone binding; set-up: species or system human Respiratory Syncytial Virus (hRSV A2 strain); details: 298 K, 50 µM protein, 250 µM flavonoid
Experimental: STD-NMR experiments were performed on a Bruker Avance III 600.13 MHz equipped with a triple resonance 5 mm cryoprobe, having the pulse field gradient along the Z axis. All data were analyzed with Bruker Topspin v3.5. A total concentration of 50 μM hRSV M2-1 protein in 50 mM K2HPO4/KH2PO4 buffer (pH 7.4) containing 150 mM NaCl and 1 mM DTT at 80/20% H2O/D2O was used for all measurements. The concentration of the flavonoids used in binding experiments was of 250 μM. The on- and off-resonance frequencies were set at −0.5 and 40 ppm, providing the best profile of protein saturation and STD effect. […] A total of 16 scans with 32 loop counters were collected with 4 dummy scans. For the suppression of the protein signals, it was applied a spinlock filter of 30 ms with 0.776 W. All measurements were performed at 298 K (25 °C) and it was used a flavonoid stock solution solubilized in deuterated DMSO-d6.
The STD effect ( ISTD ) on a given proton of the ligand was calculated according to the following equation [43, 44]:(1) ISTD=Ioff-resonance−Ion-resonance/I off-resonance where Ion-resonance and Ioff-resonance are the intensities of the ligand signals in the on- and off-resonance spectrum, respectively. The proton of the flavonoid with the highest STD effect (magnetization transfer maximum) was equal to 100% and the others protons were normalized according to this signal. The identification of ^1H NMR signals of the flavonoids at buffer solution [50 mM K2HPO4/KH2PO4 buffer (pH 7.4) at 80/20% H2O/D2O containing 150 mM NaCl and 1 mM DTT] was assisted by the resonance assignment from Chemical Book database (www.chamicalbook.com) under access code 520-33-2.

[3] = system: RSV; set-up: method as in earlier work; details: against RSV; ref 28 (Kaul et al., 1985); cited from earlier work

T1 sequence (P04545 whole entry, the tested form may be a part): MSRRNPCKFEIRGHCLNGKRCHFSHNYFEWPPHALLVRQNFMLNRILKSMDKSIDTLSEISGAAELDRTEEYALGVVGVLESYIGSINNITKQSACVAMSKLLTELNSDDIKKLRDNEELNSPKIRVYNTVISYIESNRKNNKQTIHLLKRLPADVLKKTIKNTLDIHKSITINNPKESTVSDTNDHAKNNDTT

Compound | Gibbs free energy change ΔG ([1]; 288 K) | Number of binding sites n ([1]; 288 K) | T·ΔS ([1]; 288 K) | Gibbs free energy change ΔG ([1]; 298 K) | Number of binding sites n ([1]; 298 K) | T·ΔS ([1]; 298 K) | Enthalpy change ΔH [1] | STD effect, 1H protons on B-ring (normalized to highest signal) [2] | Anti-replicative activity [3] | STD effect, hydrogens on A-ring (normalized to highest signal) [2]
COc1ccc([C@@H]2CC(=O)c3c(O)cc(O[C@@H]4O[C@H](CO[C@@H]5O[C@@H](C)[C@H](O)[C@@H](O)[C@H]5O)[C@@H](O)[C@H](O)[C@H]4O)cc3O2)cc1O [HSD, Hesperidin] | -5.2 kcal/mol | 0.89 | 3.5 kcal/mol | -5.4 kcal/mol | 0.93 | 3.7 kcal/mol | -1.7 kcal/mol | 96% | – | –
COc1ccc([C@@H]2CC(=O)c3c(O)cc(O)cc3O2)cc1O [HST, Hesperetin] | -6.5 kcal/mol | 1.05 | -22.5 kcal/mol | -5.7 kcal/mol | 1.04 | -23.3 kcal/mol | -29.0 kcal/mol | 72% | 88% | 100%
